Data taken from patent US12617752B2, “Rapidly metabolized lipid compound” (Beijing Jitai Life Sciences Ltd, priority 2023, dated 2026).

Experiments:
[1] = Particle size and PDI of lipid nanoparticles by dynamic light scattering; format: physicochemical; conditions: lipid nanoparticles with luciferase mRNA; ionizable lipid/cholesterol/DSPC/DMG-PEG2000 50/38.5/10/1.5 mol%
How it was run: (§1)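 LNPs of ionizable lipid/cholesterol/phospholipid/PEG-lipid (50/38.5/10/1.5 mol%, N/P 6) were formed by microfluidic mixing with mRNA in pH 4.5 acetate, then buffer-exchanged by ultrafiltration. Size and PDI were measured by DLS. Encapsulation came from RiboGreen fluorescence (485/528 nm) in TE pH 7.5, with and without 0.5% Triton at 37 °C for 30 min.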

[2] = Clearance rate of ionizable lipids in vivo (liver content by LC-MS/MS); conditions: C57 WT female mice, tail vein, 100 μL unloaded LNP (0.1 mg/mL)
Protocol: The 6-8 weeks old C57 WT female mice (n=3) were injected by tail vein administration of 100 μL of unloaded LNP (0.1 mg/mL) formed from the ionizable lipid, cholesterol, DSPC, and DMG-PEG 2000 at a ratio of 50:38.5:10:1.5. The experimental animals were executed by removing the cervical vertebrae and dissected for the liver at 24 h and 72 h after administration, respectively, while the same batch of non-dosed experimental animal livers were used as a blank control group. Water was added to the liver sample for homogenization, and the protein was precipitated. The content of the ionizable lipid in the sample was quantitatively analyzed using LC-MS/MS in comparison to a calibration standard prepared from matched blank liver tissues.

[3] = Encapsulation efficiency of lipid nanoparticles (Quant-it RiboGreen RNA Assay); format: physicochemical; conditions: lipid nanoparticles with luciferase mRNA
How it was run: as §1

C57BL/6 mice = test: In vivo delivery of luciferase mRNA lipid nanoparticles in mice (bioluminescence imaging); conditions: intravenous, single dose 0.5 mg/kg luciferase mRNA
How it was run: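 Female C57BL/6 mice, 6-8 weeks old, received luciferase mRNA lipid nanoparticles as a single intravenous dose of 0.5 mg/kg mRNA. At 6 h, D-luciferin given intraperitoneally; 10 min later, mice were imaged under isoflurane anaesthesia. Values are group mean fluorescence intensity and total photon count.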

Row | SMILES | Particle size (nm) [1] | Particle-size distribution (PDI) [1] | Percentage of cationic lipids in the liver in the total dose, 24 h after administration (%) [2] | Percentage of cationic lipids in the liver in the total dose, 72 h after administration (%) [2] | Encapsulation efficiency (%) [3] | Total photon count in vivo at 6 hours after administration (Total Flux) (C57BL/6 mice) | Percentage of cationic lipids in the liver in the total dose, 72 h after administration (%) ([2]; listed as control group)
1 | CCCCCCCCCOC(=O)CCCCCCCN(CCCO)CCCCCCC(C)(C)C(=O)OC(CCCCCCCC)CCCCCCCC [4a] | 103.7 nm | 0.005 | <1% | 0% | 92.87% | 3.25E+10 | 
2 | CCCCCCCCCOC(=O)C(C)(C)CCCCCCN(CCO)CCCCCCC(C)(C)C(=O)OC(CCCCCCCC)CCCCCCCC [Control group, reference compound] |  |  | 92 ± 3.5% | 89 ± 4.7% |  |  | about 90%
3 | CCCCCCCCCC(=O)OCCCC(C)(C)CCCN(CCCO)CCCCCCC(=O)OCCCC(CCCCCC)CCCCCC [83b] | 100.67 nm | 0.10 |  |  | 95.70% | 1.62E+10 | 
4 | CCCCCCCCCC(=O)OCC(C)(C)CCCCCN(CCCCO)CCCCCCCC(=O)OCC(CCCCCCC)CCCCCCC [117b] | 151.17 nm | 0.09 |  |  | 72.51% | 1.73E+10 | 
5 | CCCCCCCCCC(=O)OCCC(C)(C)CCCCN(CCO)CCCCCCCC(=O)OCC(CCCCCCC)CCCCCCC [56b] | 98.59 nm | 0.16 |  |  | 93.87% | 8.35E+10 | 
6 | CCCCCCCCCOC(=O)CC(C)(C)CCCCCN(CCO)CCCCCCOC(=O)OCC(CCCCCCC)CCCCCCC [45a] | 114.73 nm | 0.15 |  |  | 94.63% | 1.22E+11 | 
7 | CCCCCCCCCCCOC(=O)OCCCCCCN(CCO)CCCCCCC(C)(C)C(=O)OC(CCCCCCCCCC)CCCCCCCCCC [49a] | 100.56 nm | 0.14 |  |  | 94.85% | 2.28E+10 | 
8 | CCCCCCCCCC(=O)OCCCC(C)(C)CCCN(CCO)CCCCCCC(=O)OCCC(CCCCCCC)CCCCCCC [74b] | 93.18 nm | 0.17 |  |  | 94.92% | 7.13E+10 | 
9 | CCCCCCCCCOC(=O)OCCCCCCN(CCO)CCCCCCC(C)(C)C(=O)OCCC(CCCCCC)CCCCCC [34a] | 116.67 nm | 0.12 |  |  | 95.73% | 3.14E+10 | 
10 | CCCCCCCCCOC(=O)OCCCCCCCN(CCO)CCCCCC(C)(C)COC(=O)CC(CCCCCCC)CCCCCCC [29b] | 112.43 nm | 0.10 |  |  | 96.28% | 3.52E+10 | 
11 | CCCCCCCCCCC(=O)OCCC(C)(C)CCCCN(CCO)CCCCCCCC(=O)OCC(CCCCCCCC)CCCCCCCC [99b] | 85.13 nm | 0.15 |  |  | 92.70% | 4.78E+10 | 
12 | CCCCCCCCCC(=O)OCC(C)(C)CCCCCN(CCCO)CCCCCCCC(=O)OC(CCCCCCCC)CCCCCCCC [2b] | 104.61 nm | 0.013 |  |  | 80.17% | 8.31E+10 | 
13 | CCCCCCCCCC(=O)OCCCC(C)(C)CCCN(CCCCO)CCCCCCC(=O)OCCC(CCCCCCC)CCCCCCC [93b] | 141.73 nm | 0.10 |  |  | 90.17% | 2.45E+10 | 
14 | CCCCCCCCCCC(=O)OCC(C)(C)CCCCCN(CCCCCCOC(=O)OC(CCCCCCCCC)CCCCCCCCC)C(=O)SCCCCN(C)C [46b] | 98.91 nm | 0.09 |  |  | 97.78% | 2.44E+10 | 
15 | CCCCCCCCCNC(=O)CCCCCCCN(CCO)CCCCCCC(C)(C)C(=O)OC(CCCCCCCC)CCCCCCCC [58a] | 187.50 nm | 0.18 |  |  | 68.54% | 2.72E+10 | 
16 | CCCCCCCCCCCOC(=O)CCCCCN(CCCCO)CCCCCCC(C)(C)C(=O)OC(CCCCCCCC)CCCCCCCC [12a] | 104.85 nm | 0.021 |  |  | 85.24% | 1.39E+10 | 
17 | CCCCCCCCCC(=O)OCC(C)(C)CCCCCN(CCCCCCOC(=O)OCC(CCCCCCC)CCCCCCC)C(=O)SCCCN(C)C [47b] | 122.40 nm | 0.07 |  |  | 97.27% | 2.84E+10 | 
18 | CCCCCCCCCOC(=O)CCCCC(C)(C)CCN(CCO)CCCCCCCC(=O)OCCC(CCCCCC)CCCCCC [27a] | 136.43 nm | 0.016 |  |  | 93.52% | 4.31E+10 | 
19 | CCCCCCCCCCCOC(=O)OCCCCCN(CCO)CCCCCC(C)(C)COC(=O)CC(CCCCCCC)CCCCCCC [28b] | 94.55 nm | 0.16 |  |  | 96.19% | 4.18E+10 | 
20 | CCCCCCCCCOC(=O)C(C)(C)CCCCCCN(CCO)CCCCCCOC(=O)OCCCC(CCCCC)CCCCC [42a] | 104.13 nm | 0.17 |  |  | 95.54% | 3.47E+10 | 
21 | CCCCCCCCCCCOC(=O)CCCCCN(CCO)CCCCCCC(C)(C)C(=O)OCC(CCCCCCC)CCCCCCC [14a] | 90.99 nm | 0.012 |  |  | 91.67% | 1.09E+11 | 
22 | CCCCCCCCCC(=O)OCCCC(C)(C)CCCN(CCCCO)CCCCCCC(=O)OCCCC(CCCCCC)CCCCCC [94b] | 125.60 nm | 0.11 |  |  | 93.55% | 2.23E+10 | 
23 | CCCCCCCCCOC(=O)OCCCCCCN(CCCCO)CCCCCCC(C)(C)C(=O)OCCCC(CCCCC)CCCCC [39a] | 144.83 nm | 0.08 |  |  | 93.59% | 2.24E+10 | 
24 | CCCCCCCCCOC(=O)OCCCCCCN(CCO)CCCCC(C)(C)CCC(=O)OCC(CCCCCCC)CCCCCCC [44a] | 92.67 nm | 0.20 |  |  | 96.84% | 1.06E+11 | 
25 | CCCCCCC#CCOC(=O)CCCCCCCN(CCO)CCCCCCC(C)(C)C(=O)OC(CCCCCCCC)CCCCCCCC [54a] | 87.37 nm | 0.14 |  |  | 91.34% | 1.32E+10 | 
26 | CCCCCCCCCC(=O)OCC(C)(C)CCCCCN(CCCCO)CCCCCCOC(=O)OCC(CCCCCCCC)CCCCCCCC [35b] | 100.40 nm | 0.21 |  |  | 96.35% | 3.77E+10 | 
27 | CCCCCCCCCCC(=O)OCCCC(C)(C)CCCN(CCCO)CCCCCCC(=O)OCC(CCCCCCCCC)CCCCCCCCC [114b] | 103.40 nm | 0.13 |  |  | 93.55% | 4.53E+10 | 
28 | CCCCCCCCCC(=O)OCCCC(C)(C)CCCN(CCCCO)CCCCCCCC(=O)OCC(CCCCCCC)CCCCCCC [64b] | 143.67 nm | 0.09 |  |  | 89.27% | 3.36E+10 | 
29 | CCCCCCCCCC(=O)OCCC(C)(C)CCCCN(CCCO)CCCCCCC(=O)OCCC(CCCCCCC)CCCCCCC [103b] | 96.82 nm | 0.11 |  |  | 94.07% | 5.95E+10 | 
